ChEMBL document CHEMBL1147145, “Scaffold targeting drug-resistant colon cancers” (J Med Chem, 2007)
Non-standard residues stand in square brackets, D forms with d. Residues, ends and D or L forms follow the SMILES beside them. *: point of attachment. NMeF = CN[C@@H](Cc1ccccc1)C(=O)O; Cha = N[C@@H](CC1CCCCC1)C(=O)O; NMeL = CN[C@@H](CC(C)C)C(=O)O; dNMeL = CN[C@H](CC(C)C)C(=O)O; dNMeV = CN[C@@H](C(=O)O)C(C)C; Cbz = O=C(OCc1ccccc1)*; Sar = CNCC(=O)O

Experiments:
HCT-116 [1] = assay: Growth inhibition in HCT116 cells assessed as inhibition of [3H]thymidine incorporation at 1 uM relative to control; format: functional; details: Homo sapiens, read-out: TGI
HCT-15 [2] = assay: Growth inhibition in HCT15 cells assessed as inhibition of [3H]thymidine incorporation at 1 uM relative to control; format: functional; details: Homo sapiens, read-out: TGI
[3] = Growth inhibition in WS1 cells assessed as inhibition of [3H]thymidine incorporation; format: functional, cell-based; details: Homo sapiens
HCT-116 [4] = assay: Growth inhibition in HCT116 cells assessed as inhibition of [3H]thymidine incorporation; format: functional, cell-based; details: Homo sapiens
HCT-15 [5] = assay: Growth inhibition in HCT15 cells assessed as inhibition of [3H]thymidine incorporation; format: functional, cell-based; details: Homo sapiens

Structure (SMILES)	inhibition of growth at 1 µM (HCT-116 [1])	inhibition of growth at 1 µM (HCT-15 [2])	IC50 [3]	IC50 (HCT-116 [4])	IC50 (HCT-15 [5])
CC(C)C[C@@H]1NC(=O)[C@H](CC(C)C)NC(=O)[C@@H](Cc2ccc(O)cc2)NC(=O)[C@H](CC(C)C)NC(=O)[C@H](C(C)C)NC1=O (cyclo(LLVL[dY]))	45%	60%	200 µM	–	–
CC(C)C[C@@H]1NC(=O)[C@@H](CC(C)C)NC(=O)[C@H](Cc2ccccc2)NC(=O)[C@H](CC(C)C)NC(=O)[C@@H](C(C)C)NC1=O (cyclo(F[dL]L[dV]L))	16%	20%	–	–	–
CC(C)C[C@@H]1NC(=O)[C@H](Cc2ccccc2)NC(=O)[C@@H](CC(C)C)NC(=O)[C@H](C(C)C)NC(=O)[C@H](CC(C)C)NC1=O (cyclo(FLLV[dL]))	18%	10%	–	–	–
CC(C)C[C@@H]1NC(=O)[C@H](Cc2ccccc2)NC(=O)[C@H](CC(C)C)NC(=O)[C@@H](C(C)C)N(C)C(=O)[C@H](CC2CCCCC2)NC1=O (cyclo([Cha][dNMeV]LFL))	48%	60%	16 µM	2 µM	–
CC(C)C[C@@H]1NC(=O)[C@H](CC(C)C)NC(=O)[C@@H](Cc2ccccc2)NC(=O)[C@H](CC(C)C)NC(=O)[C@H](C(C)C)NC1=O (cyclo(LLVL[dF]))	30%	26%	–	–	–
CC(C)C[C@@H]1NC(=O)[C@H](C(C)C)NC(=O)[C@H](CC(C)C)N(C)C(=O)[C@H](CC(C)C)N(C)C(=O)[C@H](Cc2ccccc2)NC1=O	30%	57%	–	–	–
CC(C)C[C@@H]1NC(=O)[C@H](Cc2ccccc2)NC(=O)[C@H](CC(C)C)NC(=O)[C@@H](Cc2ccccc2)NC(=O)[C@H](CC(C)C)NC1=O (cyclo(FLL[dF]L))	11%	11%	–	–	–
CC(C)C[C@@H]1NC(=O)[C@H](C(C)C)NC(=O)[C@@H](CC(C)C)NC(=O)[C@@H](CC(C)C)NC(=O)[C@H](Cc2ccccc2)NC1=O (cyclo(F[dL][dL]VL))	28%	40%	–	–	–
CC(C)C[C@@H]1NC(=O)[C@H](Cc2ccc(O)cc2)NC(=O)[C@H](CC(C)C)N(C)C(=O)[C@H](C(C)C)NC(=O)[C@H](CC(C)C)NC1=O (cyclo(LLV[NMeL]Y))	20%	3%	–	–	–
CC(C)C[C@@H]1NC(=O)[C@H](Cc2ccccc2)NC(=O)[C@H](CC(C)C)NC(=O)[C@H](C(C)C)NC(=O)[C@H](CC(C)C)NC1=O (cyclo(FLLVL))	28%	10%	300 µM	–	21 µM
O=c1[nH]cc(F)c(=O)[nH]1 [FLUOROURACIL]	–	–	300 µM	300 µM	300 µM
CC(C)C[C@@H]1NC(=O)[C@@H](CC(C)C)N(C)C(=O)[C@H](Cc2ccccc2)NC(=O)[C@H](C(C)C)NC(=O)[C@H](C(C)C)NC1=O	42%	48%	200 µM	2 µM	1.2 µM
CC(C)C[C@@H]1NC(=O)[C@H](Cc2ccccc2)NC(=O)[C@@H](CC(C)C)NC(=O)[C@@H](C(C)C)NC(=O)[C@H](CC(C)C)NC1=O (cyclo(FLL[dV][dL]))	41%	21%	–	–	–
CC(C)C[C@@H]1NC(=O)[C@H](Cc2ccccc2)NC(=O)[C@H](CC(C)C)NC(=O)[C@@H](C(C)C)N(C)C(=O)[C@H](CC(C)C)NC1=O	19%	21%	–	–	–
CC(C)C[C@@H]1NC(=O)[C@H](Cc2ccccc2)NC(=O)[C@@H](CC(C)C)N(C)C(=O)[C@H](C(C)C)NC(=O)[C@H](CC(C)C)NC1=O (cyclo(FLLV[dNMeL]))	25%	33%	–	–	–
CC(C)C[C@@H]1NC(=O)[C@H](Cc2ccccc2)NC(=O)[C@H](CC(C)C)NC(=O)[C@@H](C(C)C)NC(=O)[C@H](CC(C)C)NC1=O (cyclo(FLL[dV]L))	48%	48%	20 µM	–	–

Structure (SMILES)	inhibition of growth at 1 µM (HCT-116 [1])	inhibition of growth at 1 µM (HCT-15 [2])	IC50 [3]	IC50 (HCT-116 [4])	IC50 (HCT-15 [5])
CC(C)C[C@@H]1NC(=O)[C@H](C(C)C)NC(=O)[C@H](CC(C)C)N(C)C(=O)[C@@H](CC(C)C)N(C)C(=O)[C@H](Cc2ccccc2)NC1=O	23%	30%	–	–	–
CC(C)C[C@@H]1NC(=O)[C@H](CC(C)C)NC(=O)[C@H](Cc2ccccc2)N(C)C(=O)[C@H](CC(C)C)NC(=O)[C@H](C(C)C)NC1=O (cyclo([NMeF]LLVL))	2%	18%	–	–	–
CC(C)C[C@@H]1NC(=O)[C@H](C(C)C)NC(=O)[C@H](CC(C)C)NC(=O)[C@@H](CC(C)C)N(C)C(=O)[C@H](Cc2ccccc2)NC1=O (cyclo([dNMeL]LVLF))	45%	10%	–	–	–
CC(C)C[C@@H]1NC(=O)[C@@H](C(C)C)NC(=O)[C@H](CC(C)C)NC(=O)[C@H](CC(C)C)N(C)C(=O)[C@H](Cc2ccccc2)NC1=O (cyclo(F[NMeL]L[dV]L))	38%	19%	–	–	–
CC(C)C[C@@H]1NC(=O)[C@@H](C(C)C)N(C)C(=O)[C@H](CC(C)C)NC(=O)[C@@H](CC(C)C)NC(=O)[C@H](Cc2ccccc2)NC1=O	0%	0%	–	–	–
CC(C)C[C@@H]1NC(=O)[C@H](Cc2ccccc2)NC(=O)[C@H](CC(C)C)NC(=O)[C@@H](C(C)C)NC(=O)[C@H](CCCCN)NC1=O (cyclo(FLK[dV]L))	11%	18%	–	–	–
CC(C)C[C@@H]1NC(=O)CN(C)C(=O)[C@H](Cc2ccccc2)NC(=O)[C@H](C(C)C)NC(=O)[C@@H](C(C)C)NC1=O (cyclo(F[Sar]L[dV]V))	20%	18%	–	–	–
CC(C)C[C@@H]1NC(=O)[C@H](Cc2ccccc2)NC(=O)[C@H](CC(C)C)NC(=O)[C@@H](CO)NC(=O)[C@H](CC(C)C)NC1=O (cyclo(FLL[dS]L))	0%	11%	–	–	–
CC(C)C[C@@H]1NC(=O)[C@H](Cc2ccccc2)NC(=O)[C@H](CC(C)C)NC(=O)[C@H](C(C)C)N(C)C(=O)[C@H](CC(C)C)NC1=O	6%	23%	–	–	–
CC(C)C[C@@H]1NC(=O)[C@@H](Cc2ccccc2)NC(=O)[C@@H](CC(C)C)NC(=O)[C@@H](C(C)C)N(C)C(=O)[C@H](CC(C)C)NC1=O	44%	35%	–	–	–
CC(C)C[C@@H]1NC(=O)[C@H](C(C)C)NC(=O)[C@H](CC(C)C)NC(=O)[C@H](CC(C)C)N(C)C(=O)[C@H](Cc2ccccc2)NC1=O (cyclo(F[NMeL]LVL))	59%	35%	–	–	–
CC(C)C[C@@H]1NC(=O)[C@H](Cc2ccccc2)NC(=O)[C@H](CC(C)C)NC(=O)[C@H](C(C)C)NC(=O)[C@@H](CC(C)C)NC1=O (cyclo(FL[dL]VL))	0%	15%	–	–	–
CC(C)C[C@@H]1NC(=O)[C@H](Cc2ccccc2)NC(=O)[C@@H](Cc2ccccc2)NC(=O)[C@H](C(C)C)NC(=O)[C@H](CC(C)C)NC1=O	35%	14%	–	200 µM	300 µM
CC(C)C[C@@H]1NC(=O)[C@H](Cc2ccccc2)NC(=O)[C@@H](Cc2ccccc2)N(C)C(=O)[C@H](C(C)C)NC(=O)[C@H](CC(C)C)NC1=O	59%	57%	200 µM	–	0.65 µM
CC(C)C[C@@H]1NC(=O)[C@H](CC(C)C)NC(=O)[C@@H](Cc2c[nH]c3ccccc23)NC(=O)[C@H](CC(C)C)NC(=O)[C@H](C(C)C)NC1=O (cyclo(LLVL[dW]))	2%	9%	–	–	–
CC(C)C[C@@H]1NC(=O)[C@H](Cc2ccccc2)NC(=O)[C@H](CC(C)C)NC(=O)[C@@H](C(C)C)NC(=O)[C@H](CCCCNC(=O)OCc2ccccc2)NC1=O (cyclo(FLK(Cbz)[dV]L))	16%	3%	–	–	–
